For data set [1], the system named is SHRs. The experiment in a line: Telemetric monitoring of conscious SHRs during dobutamine infusion. In kind it is in vivo, rat (SHR). Here is the method:
Two days after catherization of the jugular vein, control values were taken and 1 mg/kg β1-AS-ODN was injected. 48 hr later, rats were tested for the effect of β1-AS-ODN. The rats were allowed to recover until all the cardiovascular parameters returned to control values. […] For β1-stimulation, SHRs were infused with dobutamine (β1-selective agonist) through a jugular vein catheter at 5, 10, 20, and 40 μg·kg^−1·min.^−1. Each dose was given for 5 min. continuously and at 1-hr intervals until all the cardiovascular parameters returned to baseline values so as to avoid the effect of tachyphylaxis. BP and HR were sampled every 1 min. dP/dtmax was calculated from the slope of the rising pulse-pressure curve and determined every 1 min. The difference between values at each dose and baseline was denoted as Δ.
Two days after catheterization of jugular vein, control values were taken and 1 mg/kg β1-AS-ODN was injected. Forty-eight hr later, rats were tested for the effect of β1-AS-ODN. The rats were allowed to recover until all the cardiovascular parameters returned to control values. […] For β1-stimulation, SHR were infused with dobutamine (β1-selective agonist) through jugular vein catheter at 5, 10, 20, 40 μg/kg/min. Each dose was given for 5 min continuously and at 1-hr intervals until all cardiovascular parameters returned to baseline so as to avoid the effect of tachyphylaxis. BP and HR were sampled every min. dP/dtmax was calculated from the slope of the rising pulse pressure curve and determined every min. The difference between values at each dose and baseline was denoted as Δ.

The test system of data set [2] is spontaneously hypertensive rats. The data set is described as follows: Left ventricular hypertrophy after 2-month treatment. The data set is classed as in vivo, rat (SHR). To be noted: end of 2-month treatment; vs controls. The procedure:
Adult spontaneously hypertensive rats (300-350 g) were treated with β1-AS-ODNs for more than 2 months. The blood pressure was reduced by 20-30 mmHg persistently throughout the treatment period (FIG. 11). Control animals receiving saline or INV-ODNs had no change in blood pressure. At the end of a 2-month treatment, the hearts were dissected and weighed.

A further data set has as its target T1, β1-ARs (Rattus norvegicus, UniProt P18090).
T1 construct: membranes were prepared from heart ventricles as previously described; from tissue; host or cells: heart ventricles of SHR
To be noted: even after 18 days, single i.v. injection (Zhang et al., 1999); cited from earlier work.

A further data set has as its system β1-AR mRNA. The experiment in a line: RT-PCR and Southern blotting, renal cortex. Conditions: 0.5 mg/kg i.v., semiquantitative RT-PCR. In kind it is in vivo, rat (SHR). Here is the method: (§1) At different time points after the single injection of β1-AS-ODN or inverted ODN, rats were euthanized, and the renal cortex was dissected from the left kidneys, immediately dipped into RNA later tissue storage buffer (Ambion), and stored at −20° C. Total RNA was extracted with RNAwiz reagent (Ambion) and quantified by spectrophotometer. RNA samples from 4 to 5 rats from each time point were pooled. RNA (5 μg) was digested by DNase I and reverse-transcribed by Superscript reverse transcriptase (GIBCO BRL) at 42° C. for 50 min. and 1/20 of the reverse transcription (RT) product was used to run a polymerase chain reaction (PCR) for 20 cycles. PCR primers for β1-AR were 5′-[…]-3′ (SEQ ID NO:199) (forward) and 5′-[…]-3′ (SEQ ID NO:200) (reverse) and yielded products of 432 bp, which spanned the AUG start codon. Primers for preprorenin were 5′-[…]-3′ (SEQ ID NO:201) (forward) and 5′-[…]-3′ (SEQ ID NO:202) (reverse) and yielded products of 362 bp.
(§2) Primers for GAPDH were 5′-[…]-3′ (SEQ ID NO:203) (forward) and 5′-[…]-3′ (SEQ ID NO:204) (reverse) and yielded products of 505 bp (Jo et al., 1996). RT-PCR products were subjected to Southern blotting, hybridized with psoralen-biotin-labeled cDNA probes, and detected with nonisotopic kits (Ambion). After the membranes had been exposed to x-ray films, the intensity of β1-AR and preprorenin mRNAs was quantified by densitometry and normalized with GAPDH mRNA levels. The studies were repeated at least twice.

For another data set, the system named is preprorenin mRNA. The experiment in a line: RT-PCR and Southern blotting, renal cortex. In kind it is in vivo, rat (SHR). Here is the method: as §1, §2
Data set [3] deals with SHRs. Conditions: Zhang et al., 1999; without causing bradycardia; cited from earlier work.
Data set [4] in a line: Immune response (gel immunodiffusion, C-reactive protein). The data set is classed as in vivo, rat (SHR). To be noted: after repeated administration. An excerpt: Safety profiles including liver transaminases, hematology, immune response and tissue pathology were investigated during three repeated injections of β1-AS-ODNs for extended periods of time.
C-reactive protein (CRP), a clinical index for immune reaction, was found negative in all animals.

Consider 1 substance from patent US6489307B1, “Antisense compositions targeted to β1-adrenoceptor-specific mRNA and methods of use” (University of Florida, priority 1998, dated 2002).

T1 sequence (P18090 whole entry): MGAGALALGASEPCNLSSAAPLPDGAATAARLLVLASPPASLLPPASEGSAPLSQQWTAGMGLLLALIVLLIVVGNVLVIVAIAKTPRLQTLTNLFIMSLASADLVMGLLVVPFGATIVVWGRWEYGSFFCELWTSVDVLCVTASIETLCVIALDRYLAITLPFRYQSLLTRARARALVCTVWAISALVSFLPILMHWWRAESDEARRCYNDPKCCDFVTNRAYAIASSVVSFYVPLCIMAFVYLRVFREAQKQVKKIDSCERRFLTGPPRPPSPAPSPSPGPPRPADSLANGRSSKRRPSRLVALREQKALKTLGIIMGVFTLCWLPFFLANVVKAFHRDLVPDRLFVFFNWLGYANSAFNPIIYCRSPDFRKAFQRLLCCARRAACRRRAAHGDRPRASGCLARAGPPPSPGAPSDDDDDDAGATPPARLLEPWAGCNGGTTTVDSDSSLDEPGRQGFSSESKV

With “5′-CCGCGCCCATGCCGA-3′ (phosphorothioate backbone, further chemistry not given here) [β1-AS-ODN, 15-mer antisense ODN targeted to the AUG start codon of rat β1-AR mRNA]”, in the data set on SHRs [1] (1 mg/kg, control 365±8), the “basal (resting) HR” value came to 365±12 bpm. In the data set on SHRs [1] (1 mg/kg, control 2937±277), the “basal dP/dtmax” value was 2922±249 mm Hg/s and the “resting dP/dtmax” value is 2922±249 mmHg/sec. Besides, in the data set with SHRs [1] (48 hr after 1 mg/kg), the “change in HR in the face of dobutamine” value is “not significantly reduced” and the “increase in dP/dtmax in the face of dobutamine” value was “significantly (P<0.02) dampened”. Moreover, in data set [2], the “left ventricular hypertrophy (LV/BW)” value is reported as “significantly reduced”. Besides, the “decrease in ventricular β1-AR density” value with β1-ARs was 30-50%. Also, in the data set on β1-AR mRNA, the “level of steady-state β1-AR mRNA in renal cortex” value was “did not reduce”. For the same substance, the “level of steady-state β1-AR mRNA in renal cortex” value with β1-AR mRNA (listed as AS-ODN) is given as “no reduction”. In addition, the “preprorenin mRNA level in renal cortex” value in the data set on preprorenin mRNA (4 days after injection) is reported as 62 % of control. In addition, the “preprorenin mRNA decrease” value with preprorenin mRNA (by day 18) is given as “completely reversed”. Also, the “maximum drop in blood pressure” value in the data set on SHRs [3] is recorded as 38 mmHg. Further, the “C-Reactive Protein” value in data set [4] is given as “negative”. Moreover, the “Antibody to ODN” value in data set [4] (gel immunodiffusion) is reported as “no detectable antibody”.
